We go through 19 molecules from publication PMC6670186, “Novel prodrugs of decitabine with greater metabolic stability and less toxicity” (Clinical Epigenetics, 2019).

In one data set the test system is Cytidine deaminase (CDA). The arrangement: method as in J. Clinical Investigation, 1974, 53(3), 922-931. The note with it: substrate of CDA; ref J. Clinical Investigation, 1974, 53(3), 922-931; cited from earlier work.
Data set [1] can be described thus: Partition coefficient (log P), shake-flask method, n-octanol/PBS. The class given is physicochemical. As for the experimental part:
The method employed HPLC with the following conditions: ZORBAX Bonus C18 column (4.6 × 150 mm, 3 μm); eluent: A = 10 mM HCO2NH4, B = acetonitrile, A:B = 50:50 (an isocratic mode for 5 min), and A:B = 99:1–20:80 (a gradient mode for 15 min); flow rate = 1.0 mL/min; oven temperature = 40 °C; detection = 240 nm.

A short description of data set [2]: Stability in phosphate-buffered saline. It is filed as physicochemical. The note with it: for t1/2 in PBS: PBS solution at 37°C; for Stability t1/2 in PBS: PBS 37 °C, 20** + x h, 20 h = t1/2 in PBS of DAC, x = OR compound. On the procedure: Five microliters of DAC derivatives (1.0 mg/100 μL of DMSO) was added to 200 μL of a stirred PBS solution at 37 °C. The mixture was stirred continuously for 1 day. The remaining of the starting derivatives was assayed using the HPLC analytical conditions as described above.

The target in data set [3] is T1, human recombinant cytidine deaminase (Homo sapiens, UniProt P32320).
T1 construct: His; purchased AT Gen Co. Ltd; Seoul, Korea
T1 sequence (P32320 whole entry): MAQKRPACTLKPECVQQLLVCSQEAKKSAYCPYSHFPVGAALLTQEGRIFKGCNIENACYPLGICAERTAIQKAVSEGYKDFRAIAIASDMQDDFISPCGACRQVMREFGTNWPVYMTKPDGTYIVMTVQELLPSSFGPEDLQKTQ
Put plainly: Stability in the presence of cytidine deaminase. The class given is in vitro ADME. The note with it: for Enzymatic stability, retained: cytidine deaminase, after 2 h. From the text:
The remaining of the starting derivatives were continuously assayed using HPLC analytical conditions as described above.

Data set [4] in a line: Chemical stability in a protic solvent. It is filed as physicochemical.
A short description of data set [5]: Pharmacokinetics in mice, intraperitoneal. It is filed as in vivo. The note with it: for AUC 0 → lim, DAC / AUC 0 → lim, Total / AUC 0 → lim, OR compound: plasma; for AUC 0 → lim, DAC: DAC (metabolite for OR compounds), equimolar dose; for AUC 0 → lim, Total: OR compound + metabolite DAC; for AUC 0 → lim, OR compound: dose equimolar to 0.20 mg/kg DAC. As for the experimental part: Six-week-old female ICR mice were intraperitoneally injected with 0.20 mg/kg of DAC, 0.29 mg/kg of OR-2003, 0.32 mg/kg of OR-2009, 0.30 mg/kg of OR-2100, and 0.31 mg/kg of OR-2102. The doses were decided so that equivalent amounts of molar concentration would be administered. The blood plasma was collected before and at 5, 15, 30, 45, 60, 90, and 120 min after the treatment. All experimental procedures were approved by the Committee of National Cancer Center.

The subject of data set [6] is exogenous UCHL1 promoter and OSR2 promoter CpG island. Put plainly: Quantitative methylation-specific PCR of marker genes. The class given is cell-based, Human. The note with it: qMSP. As for the experimental part:
One microgram of EcoRV-digested genomic DNA was treated with sodium bisulfite as described previously. Bisulfite-treated DNA was resuspended in 40 μL of TE-buffer (10 mM Tris, pH 8.0; 1 mM EDTA, pH 8.0), and 1 μL was used for quantitative methylation-specific PCR (qMSP) using primers specific to methylated and unmethylated target loci, including MetLuc-UCHL1 promoter, OSR2 promoter, and UCHL1 promoter (Additional file 1: Table S1). As a fully unmethylated DNA control, genomic DNA from peripheral blood cells of a healthy person was amplified twice using a GenomiPhi DNA amplification kit (GE Healthcare Life Sciences; Little Chalfont, UK). As a fully methylated DNA control, the fully unmethylated DNA was methylated by SssI methylase (New England Biolabs; Beverly, MA).

Marks after values point to notes of the source that are not given here. Some results are limits rather than exact numbers.

Take `Nc1ccn([C@H]2C[C@H](O)[C@@H](CO)O2)c(=O)n1` [2'-deoxycytidine]: in the data set with Cytidine deaminase (CDA), the Michaelis constant is 26 µM.

Regarding `Nc1nc(=O)n([C@@H]2O[C@H](CO)[C@@H](O)[C@H]2O)cc1F` [5-fluorocytidine], in the data set on Cytidine deaminase (CDA), the Michaelis constant is given as 30 µM.

On to `Nc1ncn([C@@H]2O[C@H](CO)[C@@H](O)[C@H]2O)c(=O)n1` [AZA, 5-azacytidine], for which the Michaelis constant in the data set on Cytidine deaminase (CDA) is 430 µM.

With `Nc1ncn([C@H]2C[C@H](O)[C@@H](CO[Si](Cc3ccccc3)(Cc3ccccc3)Cc3ccccc3)O2)c(=O)n1` [Benzyl, Benzyl, Benzyl], in data set [1], the “Log PO/PBS” value is 4.69. Further, the “t1/2 in PBS” value in data set [2] is more than 24 h.

For the molecule `CC[Si](C)(CC)OC[C@H]1O[C@@H](n2cnc(N)nc2=O)C[C@@H]1O` [Ethyl, Ethyl, Methyl], in data set [1], the “Log PO/PBS” value is recorded as 1.49. In addition, the “t1/2 in PBS” value in data set [2] was 4 h. In addition, in data set [3], the “enzymatic stability in the presence of CDA” value (shortened to “enzymatic stability … of CDA”) is “stable in the presence of CDA”.

With `CC[Si](CC)(OCC1OC(n2cnc(N)nc2=O)CC1O)C1CCCC1` (stereo not drawn) [Ethyl, Ethyl, c-Pentyl], the “Log PO/PBS” value in data set [1] is recorded as 3.10. For the same molecule, the “t1/2 in PBS” value in data set [2] is more than 24 h.

Turning to `CC[Si](CC)(OC[C@H]1O[C@@H](n2cnc(N)nc2=O)C[C@@H]1O)C(C)C` [Ethyl, Ethyl, i-Propyl], the “Log PO/PBS” value in data set [1] is on record as 2.56. Besides, the “t1/2 in PBS” value in data set [2] was more than 24 h.

As to `C[Si](C)(Cc1ccccc1)OC[C@H]1O[C@@H](n2cnc(N)nc2=O)C[C@@H]1O` [Methyl, Methyl, Benzyl], the “Log PO/PBS” value in data set [1] is 1.73. Further, in data set [2], the “t1/2 in PBS” value was determined as 2.5 h. Also, in data set [3], the “enzymatic stability … of CDA” value is on record as “gradually degraded by CDA”.

For the molecule `CC[Si](C)(C)OC[C@H]1O[C@@H](n2cnc(N)nc2=O)C[C@@H]1O` [Methyl, Methyl, Ethyl], in data set [2], the “t1/2 in PBS” value stood at 0.9 h.

Regarding `C[Si](C)(C)OC[C@H]1O[C@@H](n2cnc(N)nc2=O)C[C@@H]1O` [Methyl, Methyl, Methyl], in data set [2], the “t1/2 in PBS” value is listed as “Unstable”. For the same molecule, the “stability in a protic solvent” value in data set [4] is listed as “unstable”.

As to `C[Si](C)(OCC1OC(n2cnc(N)nc2=O)CC1O)C1CCCC1` (stereo not drawn) [Methyl, Methyl, c-Pentyl], in data set [1], the “Log PO/PBS” value stood at 2.16. For the same molecule, in data set [2], the “t1/2 in PBS” value was 15 h.

For `CC(C)[Si](C)(C)OC[C@H]1O[C@@H](n2cnc(N)nc2=O)C[C@@H]1O` [Methyl, Methyl, i-Propyl], in data set [1], the “Log PO/PBS” value amounted to 1.48. Also, in data set [2], the “t1/2 in PBS” value is 12 h. In data set [3], the “enzymatic stability … of CDA” value is listed as “stable in the presence of CDA”.

`CCCC[Si](C)(C)OC[C@H]1O[C@@H](n2cnc(N)nc2=O)C[C@@H]1O` [Methyl, Methyl, n-Butyl]: the “Log PO/PBS” value in data set [1] was found to be 4.56. Moreover, the “t1/2 in PBS” value in data set [2] came out at 1.3 h.

On to `CCCCCCCC[Si](C)(C)OCC1OC(n2cnc(N)nc2=O)CC1O` (stereo not drawn) [Methyl, Methyl, n-Octyl], for which the “t1/2 in PBS” value in data set [2] is 1.5 h.

For the molecule `CC(C)(C)[Si](C)(C)OC[C@H]1O[C@@H](n2cnc(N)nc2=O)C[C@@H]1O` [Methyl, Methyl, t-Butyl], the “Log PO/PBS” value in data set [1] was found to be 1.91. Moreover, the “t1/2 in PBS” value in data set [2] is more than 24 h. For the same molecule, the “stability in a protic solvent” value in data set [4] is “stable”.

Turning to `C[Si](C)(OC[C@H]1O[C@@H](n2cnc(N)nc2=O)C[C@@H]1O)C1CCCCC1` [OR-2009], in data set [1], the “Log PO/PBS” value came to 2.52. Also, in data set [2], the “half-life (time to release DAC)” value is recorded as not below 14 h, the “Stability t1/2 in PBS” value is listed as 20** + 14 h and the “t1/2 in PBS” value worked out at 14 h. Moreover, the “Enzymatic stability, retained” value in data set [3] is “Retain 75% after 2 h”. Further, in data set [5], the “total AUC of OR compound and metabolite DAC compared with DAC” value is “larger AUCs than that of DAC”; the “AUC 0 → lim, DAC” value came to 0.238 µM·h; the “AUC 0 → lim, Total” value turned out to be 0.552 µM·h; the “AUC 0 → lim, OR compound” value is 0.314 µM·h.

As to `CCC[Si](CC)(CC)OC[C@H]1O[C@@H](n2cnc(N)nc2=O)C[C@@H]1O` [OR-2102], in data set [1], the “Log PO/PBS” value is 2.54. Moreover, in data set [2], the “half-life (time to release DAC)” value was not below 14 h, the “Stability t1/2 in PBS” value is listed as 20** + 19 h and the “t1/2 in PBS” value was 19 h. In addition, in data set [3], the “enzymatic stability … of CDA” value is recorded as “gradually degraded by CDA” and the “Enzymatic stability, retained” value is “Retain 46% after 2 h”. In data set [5], the “AUC 0 → lim, DAC” value worked out at 0.285 µM·h; the “AUC 0 → lim, Total” value worked out at 0.366 µM·h; the “AUC 0 → lim, OR compound” value was determined as 0.081 µM·h.

With `Nc1ncn([C@H]2C[C@H](OP(=O)(O)OC[C@H]3O[C@@H](n4cnc5c(=O)[nH]c(N)nc54)C[C@@H]3O)[C@@H](CO)O2)c(=O)n1` [guadecitabine, reference compound], the “dose with strongest effect of DNA demethylation” value in data set [6] was found to be 1.0 µM. Further, the “DNA demethylation of exogenous UCHL1 promoter and OSR2 promoter CpG island” value in data set [6] (0.0 to 10.0 μM) was “weaker demethylation effect than OR-2003 and OR-2100”.

As to `CCC[Si](CCC)(CCC)OC[C@H]1O[C@@H](n2cnc(N)nc2=O)C[C@@H]1O` [n-Propyl, n-Propyl, n-Propyl], the “Log PO/PBS” value in data set [1] is on record as 5.20. Also, the “t1/2 in PBS” value in data set [2] was 22 h.
